Activity calls are given as the source filed them. The rule behind the calls is not given here.
System: cell line, cAMP TR-FRET counterscreen, inhibition
Assay: dose response, counter-screen, cell-based (AID 602305)

`CCOP(=O)(CCP(=O)(OCC)OCC)OCC.C[CH2][Sn]([Cl])([Cl])[CH2]C` was tested, and the IC50 was > 64.5 µM (inactive).

Source: PubChem BioAssay AID602305 (The Scripps Research Institute Molecular Screening Center, 2012)
